# Test results from patent US7618975B2, “4-arylamino-quinazolines and analogs as activators of caspases and inducers of apoptosis and the use thereof” (Myriad Pharmaceuticals, Inc., priority 2003, dated 2009).
# Tested on: T-47D cells
# Assay: Caspase cascade activation (N-(Ac-DEVD)-N′-ethoxycarbonyl-R110 fluorogenic substrate) in T-47D cells; as to Caspase activity Ratio T-47D (24 hr): test concentration or dose not given here; as to Caspase activity Ratio T-47D (48 hr): test concentration or dose not given here
# Assay type: cell-based, Human
# Details: T-47D; for Ratio T-47D (48 hr): benzohydrazide analogs table; for Caspase activity Ratio T-47D (24 hr) / Caspase activity Ratio T-47D (48 hr): ratio of net RFU to control
Compound,Ratio T-47D (48 hr),Caspase activity Ratio T-47D (24 hr),Caspase activity Ratio T-47D (48 hr)
CN(NC(=O)c1ccccc1F)c1nc(C(F)(F)F)nc2ccccc12 [2-fluoro-N′-(2-(trifluoromethyl)quinazolin-4-yl)-N′-methylbenzohydrazide],13.7,–,–
CSc1nc(N(C)NC(=O)c2ccc(Cl)cc2)c2ccccc2n1 [4-chloro-N′-methyl-N′-(2-(methylthio)quinazolin-4-yl)benzohydrazide],14.4,–,–
CSc1nc(N(C)NC(=O)c2ccc(F)cc2)c2ccccc2n1 [4-fluoro-N′-methyl-N′-(2-(methylthio)quinazolin-4-yl)benzohydrazide],13.8,–,–
"CN(c1ccc(Cl)cc1)c1nc(Cl)nc2ccccc12 [Example 3, (2-Chloro-quinazolin-4-yl)-(4-chloro-phenyl)-methyl-amine]",–,8.1,–
"CN(c1ccc([N+](=O)[O-])cc1)c1nc(Cl)nc2ccccc12 [Example 4, (2-Chloro-quinazolin-4-yl)-(4-nitro-phenyl)-methyl-amine]",–,7.1,–
"CN(c1ccc(OC(F)(F)F)cc1)c1nc(Cl)nc2ccccc12 [Example 5, (2-Chloro-quinazolin-4-yl)-(4-trifluoromethoxy-phenyl)-methyl-amine]",–,10.3,–
"Cc1ccc(Nc2nc(Cl)nc3ccccc23)cc1 [Example 8, (2-Chloro-quinazolin-4-yl)-(4-methyl-phenyl)-amine]",–,1.0,–
"COc1ccc2c(ccn2-c2nc(Cl)nc3ccccc23)c1 [Example 9, 2-Chloro-4-(5-methoxyindol-1-yl)quinazoline]",–,–,1.8
"COc1ccc(N(C)c2nc(NO)nc3ccccc23)cc1 [Example 10, N^2-Hydroxyl-N^4-(4-methoxy-phenyl)-N^4-methyl-quinazoline-2,4-diamine]",–,–,12.8
"COc1ccc(N(C)c2nc(NCCO)nc3ccccc23)cc1 [Example 11, N^2-(2-Hydroxylethyl)-N^4-(4-methoxy-phenyl)-N^4-methyl-quinazoline-2,4-diamine]",–,9.0,12.5
"COc1ccc(N(C)c2nc(NCCN3CCOCC3)nc3ccccc23)cc1 [Example 14, N^4-(4-Methoxy-phenyl)-N^4-methyl-N^2-(2-morpholin-4-yl-ethyl)-quinazoline-2,4-diamine]",–,9.7,12.3
COc1ccc(N(C)c2nc(N3CCOCC3)nc3ccccc23)cc1 [Example 15],–,5.7,11.5
"CC(C)=CCC/C(C)=C/CNc1nc(N(C)c2ccc(C)cc2)c2ccccc2n1 [Example 16, N^2-(3,7-Dimethyl-octa-2,6-dienyl)-N^4-(4-methyl-phenyl)-N^4-methyl-quinazoline-2,4-diamine]",–,7.6,–
"COc1ccc(N(C)c2nc(N)nc3[nH]cnc23)cc1 [Example 17, N^6-(4-Methoxy-phenyl)-N-6-methyl-9H-purine-2,6-diamine]",–,3.0,–
"CN(c1ccccc1)c1nc(N(C)c2ccccc2)c2ccccc2n1 [Example 18, N^2,N^4-Dimethyl-N^2,N^4-diphenyl-quinazoline-2,4-diamine]",–,1.0,1.0
"CN(c1ccc(Cl)cc1)c1nc(N(C)c2ccc(Cl)cc2)c2ccccc2n1 [Example 19, N^2,N^4-Bis(4-chloro-phenyl)-N^2,N^4-dimethyl-quinazoline-2,4-diamine]",–,1.0,1.0
"COc1ccc(Nc2nc(Cl)nc3cc(OC)c(OC)cc23)cc1 [Example 21, (2-Chloro-6,7-dimethoxyquinazolin-4-yl)-(4-methoxy-phenyl)-amine]",–,1.0,1.0
"COc1cc2nc(Cl)nc(N(C)c3ccc(C)cc3)c2cc1OC [Example 22, (2-Chloro-6,7-dimethoxyquinazolin-4-yl)-(4-methyl-phenyl)-methyl-amine]",–,1.0,1.0
"COc1ccc(N(C)c2nc(NCCN3CCOCC3)nc3cc(OC)c(OC)cc23)cc1 [Example 23, 6,7-Dimethoxy-N^4-(4-methoxy-phenyl)-N^4-methyl-N^2-(2-morpholin-4-yl-ethyl)-quinazoline-2,4-diamine]",–,1.0,1.0
"COc1ccc(N(C)c2nc(NC/C=C(\C)CCC=C(C)C)nc3cc(OC)c(OC)cc23)cc1 [Example 24, 6,7-Dimethoxy-N^2-(3,7-dimethyl-octa-2,6-dienyl)-N^4-(4-methoxy-phenyl)-N^4-methyl-quinazoline-2,4-diamine]",–,1.0,2.4
"COc1ccc(CN(C)c2nc(Cl)nc3ccccc23)cc1 [Example 26, (2-Chloro-quinazolin-4-yl)-(4-methoxy-benzyl)-methyl-amine]",–,–,15.7
"Clc1nc(Nc2ccncc2)c2ccccc2n1 [Example 27, (2-Chloro-quinazolin-4-yl)-pyridin-4-yl-amine]",–,–,1.0
"COc1ccc(Nc2nc(Cl)nc3ccccc23)cn1 [Example 28, (2-Chloro-quinazolin-4-yl)-(6-methoxy-pyridin-3-yl)-amine]",–,1.0,1.0

Compound,Ratio T-47D (48 hr),Caspase activity Ratio T-47D (24 hr),Caspase activity Ratio T-47D (48 hr)
"COc1cccc(Nc2nc(Cl)nc3ccccc23)c1OC [Example 29, (2-Chloro-quinazolin-4-yl)-(2,3-dimethoxy-phenyl)-amine]",–,–,1.0
"COc1ccc(Nc2nc(Cl)nc3ccccc23)c(OC)c1 [Example 30, (2-Chloro-quinazolin-4-yl)-(2,4-dimethoxy-phenyl)-amine]",–,–,1.0
"COc1cccc(Nc2nc(Cl)nc3ccccc23)c1 [Example 32, (2-Chloro-quinazolin-4-yl)-(3-methoxy-phenyl)-amine]",–,–,1.0
"COc1ccccc1Nc1nc(Cl)nc2ccccc12 [Example 33, (2-Chloro-quinazolin-4-yl)-(2-methoxy-phenyl)-amine]",–,–,1.0
"COc1ccc(N(c2nc(Cl)nc3ccccc23)C(C)C)cc1 [Example 37, (2-Chloro-quinazolin-4-yl)-isopropyl-(4-methoxy-phenyl)-amine]",–,3.3,–
"COc1ccc(N(c2nc(Cl)nc3ccccc23)C2CCCCC2)cc1 [Example 38, (2-Chloro-quinazolin-4-yl)-cyclohexyl-(4-methoxy-phenyl)-amine]",–,3.4,–
"COc1cccc(N(C)c2nc(Cl)nc3ccccc23)c1OC [Example 39, (2-Chloro-quinazolin-4-yl)-(2,3-dimethoxy-phenyl)-methyl-amine]",–,4.5,–
"CCN(c1ccc(OC)cc1)c1nc(Cl)nc2ccccc12 [Example 40, (2-Chloro-quinazolin-4-yl)-ethyl-(4-methoxy-phenyl)-amine]",–,–,6.1
"COc1ccc(N(c2nc(Cl)nc3ccccc23)C2CCCC2)cc1 [Example 45, (2-Chloro-quinazolin-4-yl)-cyclopentyl-(4-methoxy-phenyl)-amine]",–,–,1.0
"COc1ccc(N(C)c2nc(NCCc3c[nH]cn3)nc3ccccc23)cc1 [Example 46, N^2-[2-(1H-Imidazol-4-yl)-ethyl]-N^4-(4-methoxy-phenyl)-N^4-methyl-quinazoline-2,4-diamine]",–,12.8,9.4
"COc1ccc(N(C)c2nc(NCCCN(C)C)nc3ccccc23)cc1 [Example 47, N^2-(3-Dimethylamino-propyl)-N^4-(4-methoxy-phenyl)-N^4-methyl-quinazoline-2,4-diamine]",–,–,11.5
"COc1ccc(N(C)c2nc(NCCO)nc3ccccc23)cn1 [Example 48, N^2-(2-Hydroxyethyl)-N^4-(6-methoxypyridin-3-yl)-N^4-methyl-quinazoline-2,4-diamine]",–,–,12.5
"COc1ccc(N(C)c2nc(N)nc3ccccc23)cn1 [Example 49, N^4-(6-methoxypyridin-3-yl)-N^4-methyl-quinazoline-2,4-diamine]",–,7.5,13.4
"COc1ccc(N(C)c2nc(NCCO)nc3cc(OC)c(OC)cc23)cc1 [Example 50, N^2-(2-Hydroxyethyl)-N^4-(4-methoxy-phenyl)-N^4-methyl-6,7-dimethoxyquinazoline-2,4-diamine]",–,–,1.0
"COc1ccc(N(C)c2nc(Cl)nc3[nH]cnc23)cc1 [Example 51, (2-Chloro-9H-purin-6-yl)-(4-methoxy-phenyl)-methyl-amine]",–,–,0.9
"COC(=O)c1ccc(N(C)c2nc(Cl)nc3ccccc23)cc1 [Example 52, (2-Chloro-quinazolin-4-yl)-(4-methylcarboxyphenyl)-methyl-amine]",–,–,10.8
"CN(c1ccc(O)cc1)c1nc(Cl)nc2ccccc12 [Example 54, (2-Chloro-quinazolin-4-yl)-(4-hydroxyphenyl)-methylamine]",–,–,12.5
"COc1ccc(N(C)c2nc(CF)nc3ccccc23)cc1 [Example 55, (2-Fluoromethyl-quinazolin-4-yl)-(4-methoxy-phenyl)-methyl-amine]",–,–,9.0
"COc1ccc(N(C)c2nc(Cl)nc3ccc(C)cc23)cc1 [Example 56, (2-Chloro-6-methyl-quinazolin-4-yl)-(4-methoxy-phenyl)-methyl-amine]",–,–,4.9
"COc1ccc(N(C)c2nc(Cl)nc3cc(C)ccc23)cc1 [Example 57, (2-Chloro-7-methyl-quinazolin-4-yl)-(4-methoxy-phenyl)-methyl-amine]",–,–,6.2
"COc1ccc(N(C)c2nc(Cl)nc3cccc(C)c23)cc1 [Example 58, (2-Chloro-5-methyl-quinazolin-4-yl)-(4-methoxy-phenyl)-methyl-amine]",–,–,10.8
"COc1ccc(N(C)c2nc(Cl)nc3c(C)cccc23)cc1 [Example 59, (2-Chloro-8-methyl-quinazolin-4-yl)-(4-methoxy-phenyl)-methyl-amine]",–,–,7.1
